Measured values: ChEMBL document CHEMBL1821711, “Design and synthesis of novel arylpiperazine derivatives containing the imidazole core targeting 5-HT(2A) receptor and 5-HT transporter” (J Med Chem, 2011)

How the values were obtained:
[1] = target: T1, 5-hydroxytryptamine receptor 2C (Homo sapiens, UniProt P28335); experiment: biochemical; format: cell-based, CHO-K1
T1 sequence (P28335 whole entry): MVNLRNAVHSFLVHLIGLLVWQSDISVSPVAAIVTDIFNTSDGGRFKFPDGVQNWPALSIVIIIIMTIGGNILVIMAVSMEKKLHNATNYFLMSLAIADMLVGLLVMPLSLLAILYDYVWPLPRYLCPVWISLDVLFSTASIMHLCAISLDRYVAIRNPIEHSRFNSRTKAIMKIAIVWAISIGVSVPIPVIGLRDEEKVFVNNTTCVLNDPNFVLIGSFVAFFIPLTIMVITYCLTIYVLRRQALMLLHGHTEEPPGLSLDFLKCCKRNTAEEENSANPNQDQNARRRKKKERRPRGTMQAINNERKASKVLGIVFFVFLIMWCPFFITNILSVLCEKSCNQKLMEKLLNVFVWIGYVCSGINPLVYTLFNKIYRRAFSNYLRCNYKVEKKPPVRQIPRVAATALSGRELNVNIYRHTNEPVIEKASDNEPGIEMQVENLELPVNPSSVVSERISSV
Description: Displacement of [3H]mesulergine from human recombinant 5-HT2C receptor expressed in CHO-K1 cells

Cytochrome P450 3A4 = Cytochrome P450 3A4 (Homo sapiens, UniProt P08684)
Cytochrome P450 3A4, sequence (P08684 whole entry): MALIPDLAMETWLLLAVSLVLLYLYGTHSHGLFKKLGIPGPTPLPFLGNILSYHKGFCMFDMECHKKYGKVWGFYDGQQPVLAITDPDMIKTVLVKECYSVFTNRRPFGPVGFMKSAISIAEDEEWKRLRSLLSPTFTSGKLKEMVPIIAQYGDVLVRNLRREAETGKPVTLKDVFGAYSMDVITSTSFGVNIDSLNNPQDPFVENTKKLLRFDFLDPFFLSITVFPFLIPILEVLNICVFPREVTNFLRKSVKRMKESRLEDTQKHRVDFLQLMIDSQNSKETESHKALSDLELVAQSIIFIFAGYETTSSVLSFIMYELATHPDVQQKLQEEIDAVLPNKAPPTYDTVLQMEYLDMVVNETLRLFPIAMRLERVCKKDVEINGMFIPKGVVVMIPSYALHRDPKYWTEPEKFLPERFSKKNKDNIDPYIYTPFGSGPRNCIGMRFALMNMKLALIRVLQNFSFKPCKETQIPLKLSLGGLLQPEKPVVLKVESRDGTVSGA
Description: Inhibition of human recombinant CYP3A4 by luceferin-based assay

Cytochrome P450 2D6 = Cytochrome P450 2D6 (Homo sapiens, UniProt P10635)
Cytochrome P450 2D6, sequence (P10635 whole entry): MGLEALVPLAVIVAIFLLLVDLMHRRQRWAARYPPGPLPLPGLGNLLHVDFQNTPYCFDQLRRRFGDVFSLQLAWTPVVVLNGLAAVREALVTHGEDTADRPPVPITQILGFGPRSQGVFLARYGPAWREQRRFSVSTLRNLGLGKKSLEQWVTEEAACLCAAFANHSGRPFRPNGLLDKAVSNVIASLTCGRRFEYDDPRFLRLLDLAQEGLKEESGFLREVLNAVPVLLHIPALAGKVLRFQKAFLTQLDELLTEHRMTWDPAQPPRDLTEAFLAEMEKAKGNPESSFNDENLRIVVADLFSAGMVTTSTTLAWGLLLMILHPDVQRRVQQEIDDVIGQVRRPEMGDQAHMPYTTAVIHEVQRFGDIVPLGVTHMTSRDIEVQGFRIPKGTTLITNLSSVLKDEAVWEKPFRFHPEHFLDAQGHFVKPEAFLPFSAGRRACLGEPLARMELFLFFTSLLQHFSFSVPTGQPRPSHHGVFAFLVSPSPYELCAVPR
Description: Inhibition of human recombinant CYP2D6 by luceferin-based assay

in vitro = conditions: mouse, ht-22
Description: Cytotoxicity against mouse HT22 cells after 48 hrs by MTT assay

Cytochrome P450 1A2 = target: T2, Cytochrome P450 1A2 (Homo sapiens, UniProt P05177)
T2 sequence (P05177 whole entry): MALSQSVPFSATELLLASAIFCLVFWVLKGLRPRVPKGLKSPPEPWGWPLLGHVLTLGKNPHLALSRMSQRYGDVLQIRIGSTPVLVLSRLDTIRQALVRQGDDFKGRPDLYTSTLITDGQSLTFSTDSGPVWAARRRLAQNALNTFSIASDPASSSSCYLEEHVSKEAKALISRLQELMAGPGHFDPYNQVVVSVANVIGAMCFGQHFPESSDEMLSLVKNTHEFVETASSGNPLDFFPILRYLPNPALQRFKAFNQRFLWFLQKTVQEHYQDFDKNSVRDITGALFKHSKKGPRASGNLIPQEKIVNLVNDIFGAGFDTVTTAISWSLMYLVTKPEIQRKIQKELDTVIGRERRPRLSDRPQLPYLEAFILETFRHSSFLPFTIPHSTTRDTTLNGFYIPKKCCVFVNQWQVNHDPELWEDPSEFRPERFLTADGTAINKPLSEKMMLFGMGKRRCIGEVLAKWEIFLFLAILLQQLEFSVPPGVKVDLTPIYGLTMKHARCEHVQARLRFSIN
Description: Inhibition of human recombinant CYP1A2 by luceferin-based assay

Cytochrome P450 2C9 = Cytochrome P450 2C9 (Homo sapiens, UniProt P11712)
Cytochrome P450 2C9, sequence (P11712 whole entry): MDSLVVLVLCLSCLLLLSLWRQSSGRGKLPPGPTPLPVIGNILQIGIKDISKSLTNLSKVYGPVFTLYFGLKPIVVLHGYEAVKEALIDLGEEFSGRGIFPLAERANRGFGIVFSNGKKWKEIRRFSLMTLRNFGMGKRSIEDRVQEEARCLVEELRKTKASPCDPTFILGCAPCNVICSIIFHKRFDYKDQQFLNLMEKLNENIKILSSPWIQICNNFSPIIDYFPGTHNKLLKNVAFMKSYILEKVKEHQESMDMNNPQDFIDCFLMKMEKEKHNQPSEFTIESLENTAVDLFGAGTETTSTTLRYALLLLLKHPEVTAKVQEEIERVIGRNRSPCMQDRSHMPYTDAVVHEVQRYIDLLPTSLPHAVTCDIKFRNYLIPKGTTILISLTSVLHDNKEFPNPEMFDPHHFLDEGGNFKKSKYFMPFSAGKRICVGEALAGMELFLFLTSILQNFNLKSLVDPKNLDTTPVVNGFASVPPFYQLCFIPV
Description: Inhibition of human recombinant CYP2C9 by luceferin-based assay

[2] = target: 5-hydroxytryptamine receptor 6 (Homo sapiens, UniProt P50406)
5-hydroxytryptamine receptor 6, sequence (P50406 whole entry): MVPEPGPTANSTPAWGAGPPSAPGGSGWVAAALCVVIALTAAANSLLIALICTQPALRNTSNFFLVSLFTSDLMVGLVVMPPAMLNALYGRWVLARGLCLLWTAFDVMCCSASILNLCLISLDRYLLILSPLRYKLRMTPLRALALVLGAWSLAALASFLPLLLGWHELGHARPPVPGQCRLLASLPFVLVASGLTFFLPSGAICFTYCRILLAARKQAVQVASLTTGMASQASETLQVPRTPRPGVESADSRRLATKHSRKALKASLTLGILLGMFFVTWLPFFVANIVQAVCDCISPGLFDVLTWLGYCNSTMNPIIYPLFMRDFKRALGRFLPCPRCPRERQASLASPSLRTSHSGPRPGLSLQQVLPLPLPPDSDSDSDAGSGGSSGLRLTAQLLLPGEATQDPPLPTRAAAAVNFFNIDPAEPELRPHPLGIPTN
Description: Inhibition of 5HT6 receptor by competition binding assay

D(3) dopamine receptor = D(3) dopamine receptor (Homo sapiens, UniProt P35462)
D(3) dopamine receptor, sequence (P35462 whole entry): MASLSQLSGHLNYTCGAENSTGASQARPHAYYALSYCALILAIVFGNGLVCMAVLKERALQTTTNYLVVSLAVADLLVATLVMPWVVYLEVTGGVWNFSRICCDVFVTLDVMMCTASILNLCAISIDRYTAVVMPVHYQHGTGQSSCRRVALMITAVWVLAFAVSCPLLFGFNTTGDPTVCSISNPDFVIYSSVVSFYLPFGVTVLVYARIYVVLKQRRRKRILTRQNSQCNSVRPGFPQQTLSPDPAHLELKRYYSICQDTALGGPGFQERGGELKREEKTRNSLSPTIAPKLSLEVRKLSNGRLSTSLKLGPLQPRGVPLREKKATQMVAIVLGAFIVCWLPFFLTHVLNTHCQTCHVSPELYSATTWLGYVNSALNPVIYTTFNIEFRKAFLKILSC
Description: Inhibition of dopamine D3 receptor by competition binding assay

[3] = target: T3, 5-hydroxytryptamine receptor 1A (Homo sapiens, UniProt P08908)
T3 sequence (P08908 whole entry): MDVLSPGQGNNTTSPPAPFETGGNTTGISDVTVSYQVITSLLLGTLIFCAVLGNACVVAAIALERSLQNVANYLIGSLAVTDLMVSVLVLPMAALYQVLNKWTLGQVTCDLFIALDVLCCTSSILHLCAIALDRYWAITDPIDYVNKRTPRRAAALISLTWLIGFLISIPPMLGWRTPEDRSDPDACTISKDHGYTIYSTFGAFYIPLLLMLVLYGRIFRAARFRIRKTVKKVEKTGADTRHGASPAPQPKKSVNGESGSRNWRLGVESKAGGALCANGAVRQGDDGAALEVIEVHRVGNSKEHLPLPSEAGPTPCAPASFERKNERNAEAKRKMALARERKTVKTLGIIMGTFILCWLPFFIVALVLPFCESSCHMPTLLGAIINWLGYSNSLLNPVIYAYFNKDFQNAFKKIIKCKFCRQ
Description: Inhibition of 5HT1A receptor by competition binding assay

[4] = target: 5-hydroxytryptamine receptor 7 (Homo sapiens, UniProt P34969)
5-hydroxytryptamine receptor 7, sequence (P34969 whole entry): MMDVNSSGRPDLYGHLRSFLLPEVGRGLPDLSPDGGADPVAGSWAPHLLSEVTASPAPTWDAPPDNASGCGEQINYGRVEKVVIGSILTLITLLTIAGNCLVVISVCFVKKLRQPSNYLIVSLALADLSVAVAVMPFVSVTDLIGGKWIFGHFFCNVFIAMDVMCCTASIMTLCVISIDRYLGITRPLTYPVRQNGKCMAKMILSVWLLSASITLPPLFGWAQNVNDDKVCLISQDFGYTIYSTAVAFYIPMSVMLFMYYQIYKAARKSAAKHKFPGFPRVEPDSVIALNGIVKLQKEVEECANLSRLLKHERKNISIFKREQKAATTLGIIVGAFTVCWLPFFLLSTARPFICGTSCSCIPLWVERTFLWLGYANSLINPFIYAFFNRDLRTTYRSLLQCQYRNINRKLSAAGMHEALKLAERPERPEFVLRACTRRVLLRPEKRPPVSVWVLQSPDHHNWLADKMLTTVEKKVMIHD
Description: Inhibition of 5HT7 receptor by competition binding assay

D(2) dopamine receptor = D(2) dopamine receptor (Homo sapiens, UniProt P14416)
D(2) dopamine receptor, sequence (P14416 whole entry): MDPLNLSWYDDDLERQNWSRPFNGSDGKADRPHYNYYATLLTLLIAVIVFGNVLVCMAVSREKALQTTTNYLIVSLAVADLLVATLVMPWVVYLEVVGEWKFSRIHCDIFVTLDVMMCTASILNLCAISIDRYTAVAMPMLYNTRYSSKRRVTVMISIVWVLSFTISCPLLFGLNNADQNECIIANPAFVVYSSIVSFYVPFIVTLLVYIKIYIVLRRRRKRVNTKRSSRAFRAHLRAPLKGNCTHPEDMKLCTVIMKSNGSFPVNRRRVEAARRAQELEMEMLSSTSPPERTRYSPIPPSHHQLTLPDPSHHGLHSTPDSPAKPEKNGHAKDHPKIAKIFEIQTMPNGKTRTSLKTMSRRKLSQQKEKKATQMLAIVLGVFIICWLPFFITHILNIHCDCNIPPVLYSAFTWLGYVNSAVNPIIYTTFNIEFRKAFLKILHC
Description: Inhibition of dopamine D2 receptor by competition binding assay

D(4) dopamine receptor = target: T4, D(4) dopamine receptor (Homo sapiens, UniProt P21917)
T4 sequence (P21917 whole entry): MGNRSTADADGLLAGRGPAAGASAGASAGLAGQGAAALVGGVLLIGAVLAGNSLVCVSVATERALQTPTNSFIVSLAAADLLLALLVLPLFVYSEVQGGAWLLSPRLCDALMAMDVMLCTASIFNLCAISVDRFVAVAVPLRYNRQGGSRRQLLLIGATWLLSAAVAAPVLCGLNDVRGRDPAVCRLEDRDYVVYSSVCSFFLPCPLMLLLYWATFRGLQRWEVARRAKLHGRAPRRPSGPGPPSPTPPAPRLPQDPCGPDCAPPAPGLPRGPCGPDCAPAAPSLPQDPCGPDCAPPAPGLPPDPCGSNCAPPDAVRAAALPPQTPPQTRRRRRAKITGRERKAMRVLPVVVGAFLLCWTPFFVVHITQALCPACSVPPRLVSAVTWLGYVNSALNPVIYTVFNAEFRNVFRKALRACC
Description: inhibition of dopamine D4 receptor by competition binding assay

Row | Structure (SMILES) | IC50 [1] | also measured
1 | CCCc1nc(C(=O)NCC(O)CN2CCN(c3cccc(C)c3C)CC2)c(C)n1-c1ccc(F)cc1 (stereo not drawn) | 1000 nM | –
2 | CCCc1nc(C(=O)NCCCN2CCN(c3cccc(C)c3C)CC2)c(C)n1-c1ccc(F)cc1 | 68 nM | –
3 | COc1ccc(-n2c(-c3ccccc3)nc(C(=O)NCCCN3CCN(c4cccc(Cl)c4Cl)CC3)c2C)cc1 | 64 nM | –
4 | CCCc1nc(C(=O)NCCCN2CCN(c3cccc(Cl)c3Cl)CC2)c(C)n1-c1ccccc1F | 189 nM | –
5 | COc1ccc(-n2c(C)nc(C(=O)NCCCN3CCN(c4cccc(C)c4C)CC3)c2C)cc1 | 191 nM | –
6 | COc1ccc(-n2cc(C(=O)NCCCN3CCN(c4cccc(C)c4C)CC3)nc2-c2ccccc2)cc1 | 104 nM | –
7 | Cc1cccc(N2CCN(CCCNC(=O)c3nc(-c4ccccc4)n(-c4ccc5c(c4)OCCO5)c3C)CC2)c1C | 68 nM | –
8 | Cc1c(C(=O)NCC(O)CN2CCN(c3cccc(Cl)c3Cl)CC2)nc(-c2ccccc2)n1-c1ccc(F)cc1 (stereo not drawn) | 64 nM | –
9 | Cc1cccc(N2CCN(CC(O)CNC(=O)c3nc(C)n(-c4ccc5c(c4)OCCO5)c3C)CC2)c1C (stereo not drawn) | 610 nM | –
10 | Cc1c(C(=O)NCCCN2CCN(c3cccc(Cl)c3Cl)CC2)nc(-c2ccccc2)n1-c1ccccc1F | 185 nM | –
11 | Cc1c(Cl)cccc1N1CCN(CCCNC(=O)c2nc(-c3ccccc3)n(-c3ccccc3)c2Cn2cncn2)CC1 | 1370 nM | IC50 (Cytochrome P450 3A4): > 20000 nM; IC50 (Cytochrome P450 2D6): 4800 nM; CC50 at 48 h (in vitro): 19100 nM; IC50 (Cytochrome P450 1A2): 15300 nM; IC50 (Cytochrome P450 2C9): 3300 nM
12 | CCCc1nc(C(=O)NCC(O)CN2CCN(c3cccc(C)c3C)CC2)c(C)n1-c1ccc2c(c1)OCCO2 (stereo not drawn) | 593 nM | –
13 | Cc1c(Cl)cccc1N1CCN(CCCNC(=O)c2nc(C)n(CC(C)C)c2C)CC1 | 2220 nM | –
14 | Cc1cccc(N2CCN(CCCNC(=O)c3nc(C)n(-c4ccc(Cl)cc4)c3C)CC2)c1C | 233 nM | –
15 | CCCc1nc(C(=O)NCCCN2CCN(c3cccc(Cl)c3C)CC2)cn1-c1ccc(Cl)cc1 | 367 nM | –
16 | CCCc1nc(C(=O)NCC(O)CN2CCN(c3cccc(Cl)c3Cl)CC2)c(C)n1-c1ccc(F)cc1 (stereo not drawn) | 1510 nM | –
17 | Cc1cccc(N2CCN(CC(O)CNC(=O)c3nc(-c4ccccc4)n(-c4ccc(F)cc4)c3C)CC2)c1C (stereo not drawn) | 185 nM | –
18 | CCCc1nc(C(=O)NCCCN2CCN(c3cccc(C)c3C)CC2)cn1-c1ccc(F)cc1 | 238 nM | –
19 | Cc1nc(C(=O)NCC(O)CN2CCN(c3cccc(Cl)c3Cl)CC2)c(C)n1-c1ccccc1F (stereo not drawn) | 459 nM | –
20 | CCCc1nc(C(=O)NCCCN2CCN(c3cccc(Cl)c3Cl)CC2)c(C)n1-c1ccc2c(c1)OCCO2 | 297 nM | –
21 | COc1ccc(-n2c(-c3ccccc3)nc(C(=O)NCC(O)CN3CCN(c4cccc(C)c4C)CC3)c2C)cc1 (stereo not drawn) | 609 nM | –
22 | CCCc1nc(C(=O)NCCCN2CCN(c3cccc(C)c3C)CC2)c(C)n1-c1ccccc1 | 286 nM | –
23 | Cc1nc(C(=O)NCCCN2CCN(c3cccc(Cl)c3Cl)CC2)c(C)n1-c1ccccc1 | – | IC50 [2]: 136 nM; IC50 (D(3) dopamine receptor): 493 nM; IC50 [3]: 4.9 nM; IC50 [4]: 11 nM; IC50 (D(2) dopamine receptor): 1370 nM; IC50 (D(4) dopamine receptor): > 10000 nM
24 | CCCc1nc(C(=O)NCCCN2CCN(c3cccc(Cl)c3Cl)CC2)c(C)n1-c1ccccc1OC | 383 nM | –
25 | CCCc1nc(C(=O)NCCCN2CCN(c3cccc(Cl)c3C)CC2)c(C)n1-c1ccccc1OC | 473 nM | –
26 | COc1ccc(-n2c(-c3ccccc3)nc(C(=O)NCCCN3CCN(c4cccc(C)c4C)CC3)c2C)cc1 | 96 nM | –
27 | Cc1nc(C(=O)NCCCN2CCN(c3cccc(Cl)c3Cl)CC2)c(C)n1C1CCCC1 | 139 nM | –

Row | Structure (SMILES) | IC50 [1] | also measured
28 | CCCc1nc(C(=O)NCCCN2CCN(c3cccc(Cl)c3C)CC2)c(C)n1-c1ccc(F)cc1 | 229 nM | –
29 | Cc1cccc(N2CCN(CCCNC(=O)c3cn(-c4ccccc4)c(-c4ccccc4)n3)CC2)c1C | 116 nM | –
30 | Cc1c(Cl)cccc1N1CCN(CC(O)CNC(=O)c2nc(C)n(C3CCCC3)c2C)CC1 (stereo not drawn) | 166 nM | –
31 | COc1ccc(-n2c(C)nc(C(=O)NCC(O)CN3CCN(c4cccc(C)c4C)CC3)c2C)cc1 (stereo not drawn) | 546 nM | –
32 | COc1ccc(-n2c(-c3ccccc3)nc(C(=O)NCC(O)CN3CCN(c4cccc(Cl)c4C)CC3)c2C)cc1 (stereo not drawn) | 526 nM | –
33 | CCCc1nc(C(=O)NCCCN2CCN(c3cccc(Cl)c3C)CC2)c(C)n1-c1ccccc1 | 604 nM | –
34 | Cc1cccc(N2CCN(CCCNC(=O)c3nc(-c4ccccc4)n(-c4ccc(F)cc4)c3C)CC2)c1C | 64.1 nM | –
35 | Cc1nc(C(=O)NCCCN2CCN(c3cccc(Cl)c3Cl)CC2)c(C)n1-c1ccccc1C(F)(F)F | 155 nM | –
36 | CCCc1nc(C(=O)NCCCN2CCN(c3cccc(Cl)c3C)CC2)c(C)n1-c1ccc(OC)cc1 | 204 nM | –
37 | Cc1c(Cl)cccc1N1CCN(CCCNC(=O)c2nc(C)n(-c3ccc(F)cc3)c2C)CC1 | 113 nM | –
38 | CCCc1nc(C(=O)NCCCN2CCN(c3cccc(C)c3C)CC2)c(C)n1-c1ccccc1Cl | 235 nM | –
39 | Cc1c(Cl)cccc1N1CCN(CCCNC(=O)c2nc(C)n(-c3ccc4c(c3)OCCO4)c2C)CC1 | 106 nM | –
40 | Cc1c(Cl)cccc1N1CCN(CC(O)CNC(=O)c2nc(-c3ccccc3)n(-c3ccccc3)c2C)CC1 (stereo not drawn) | 739 nM | –
41 | CCCc1nc(C(=O)NCC(O)CN2CCN(c3cccc(C)c3C)CC2)c(C)n1-c1ccc(Cl)cc1 (stereo not drawn) | 661 nM | –
42 | Cc1c(Cl)cccc1N1CCN(CC(O)CNC(=O)c2nc(C)n(-c3ccc4c(c3)OCCO4)c2C)CC1 (stereo not drawn) | 663 nM | –
43 | Cc1c(Cl)cccc1N1CCN(CCCNC(=O)c2nc(-c3ccccc3)n(-c3ccc(F)cc3)c2C)CC1 | 2240 nM | –
44 | Cc1c(Cl)cccc1N1CCN(CCCNC(=O)c2nc(C)n(C3CCCC3)c2C)CC1 | 4370 nM | –
45 | COc1ccc(-n2c(-c3ccccc3)nc(C(=O)NCCCN3CCN(c4cccc(Cl)c4C)CC3)c2C)cc1 | 77 nM | –
46 | COc1ccc(-n2c(C)nc(C(=O)NCC(O)CN3CCN(c4cccc(Cl)c4C)CC3)c2C)cc1 (stereo not drawn) | 323 nM | –
47 | CCCc1nc(C(=O)NCCCN2CCN(c3cccc(Cl)c3C)CC2)c(C)n1-c1ccc2c(c1)OCCO2 | 61 nM | –
48 | CCCn1c(C)nc(C(=O)NCCCN2CCN(c3cccc(Cl)c3Cl)CC2)c1C | 198 nM | –
49 | Cc1cccc(N2CCN(CCCNC(=O)c3nc(-c4ccccc4)n(-c4ccccc4)c3C)CC2)c1C | 193 nM | –
50 | Cc1c(Cl)cccc1N1CCN(CCCNC(=O)c2nc(-c3ccccc3)n(-c3ccccc3)c2C)CC1 | 1510 nM | IC50 (Cytochrome P450 3A4): > 20000 nM; IC50 (Cytochrome P450 2D6): 5400 nM; CC50 at 48 h (in vitro): 23600 nM; IC50 (Cytochrome P450 1A2): > 20000 nM; IC50 (Cytochrome P450 2C9): 2900 nM
51 | CCCc1nc(C(=O)NCCCN2CCN(c3cccc(C)c3C)CC2)c(C)n1-c1ccccc1OC | 283 nM | –
52 | Cc1c(Cl)cccc1N1CCN(CC(O)CNC(=O)c2nc(C)n(-c3cccc(Cl)c3)c2C)CC1 (stereo not drawn) | 556 nM | –
53 | CCCn1c(C)nc(C(=O)NCC(O)CN2CCN(c3cccc(C)c3C)CC2)c1C (stereo not drawn) | > 10000 nM | –
